# In patent US5604294A, “Macrocyclic immunomodulators” (priority 1994, dated 1997):
# Test system: human mixed lymphocyte reaction (MLR)
# Assay: human mixed lymphocyte reaction (MLR) assay (immunosuppressant activity)
# Type: cell-based
# Conditions: Lymphocyte, Table 1
# Description: The immunosuppressant activity of the compounds of the present invention was determined using the human mixed lymphocyte reaction (MLR) assay described by Kino, T. et al. in Transplantation Proceedings, XIX(5):36-39,Suppl.
row,IC50 [nM],SMILES
1,0.7,CC[C@@H]1/C=C(\C)C[C@H](C)C[C@H](OC)[C@H]2O[C@@](O)(C(=O)C(=O)N3CCCC[C@H]3C(=O)O[C@H](/C(C)=C/[C@@H]3CC[C@@H](OC(=S)Oc4ccccc4)[C@H](OC)C3)[C@H](C)[C@@H](O)CC1=O)[C@H](C)C[C@@H]2OC [Example 1]
2,80,CC[C@@H]1/C=C(\C)C[C@H](C)C[C@H](OC)[C@H]2O[C@@](O)(C(=O)C(=O)N3CCCC[C@H]3C(=O)O[C@H](/C(C)=C/[C@@H]3CC[C@@H](O)[C@H](OC)C3)[C@H](C)C=CC1=O)[C@H](C)C[C@@H]2OC [Example 3]
3,0.4,CC[C@@H]1/C=C(\C)C[C@H](C)C[C@H](OC)[C@H]2O[C@@](O)(C(=O)C(=O)N3CCCC[C@H]3C(=O)O[C@H](/C(C)=C/[C@@H]3CCC(=O)[C@H](OC)C3)[C@H](C)[C@@H](O)CC1=O)[C@H](C)C[C@@H]2OC [Example 4]
4,113,CC[C@@H]1/C=C(\C)C[C@H](C)C[C@H](OC)[C@H]2O[C@@](O)(C(=O)C(=O)N3CCCC[C@H]3C(=O)O[C@H](/C(C)=C/[C@@H]3CC[C@@H](O)[C@H](OC)C3)[C@H](C)C(=O)CC1=O)[C@H](C)C[C@@H]2OC [Example 7]
5,380,CC[C@@H]1/C=C(\C)C[C@H](C)C[C@H](OC)[C@H]2O[C@@](O)(C(=O)C(=O)N3CCCC[C@H]3C(=O)O[C@H](/C(C)=C/[C@@H]3CC[C@@H](O)[C@H](OC)C3)[C@H](C)c3cc1nn3CCO)[C@H](C)C[C@@H]2OC [Example 8]
6,0.02,CC[C@@H]1/C=C(\C)C[C@H](C)C[C@H](OC)[C@H]2O[C@@](O)(C(=O)C(=O)N3CCCC[C@H]3C(=O)O[C@H](/C(C)=C/[C@@H]3CC[C@@H](OC(=N)C(Cl)(Cl)Cl)[C@H](OC)C3)[C@H](C)[C@@H](O)CC1=O)[C@H](C)C[C@@H]2OC [Example 9]
7,191,CC[C@@H]1/C=C(\C)C[C@H](C)C[C@H](OC)[C@H]2O[C@@](O)(C(=O)C(=O)N3CCCC[C@H]3C(=O)O[C@H](/C(C)=C/[C@@H]3CC[C@@H](O)[C@H](OC)C3)[C@H](C)C(N3CCN(Cc4ccccc4)CC3)CC1=O)[C@H](C)C[C@@H]2OC (stereo partly drawn) [Example 16]
8,47.4,CC[C@@H]1/C=C(\C)C[C@H](C)C[C@H](OC)[C@H]2O[C@@](O)(C(=O)C(=O)N3CCCC[C@H]3C(=O)O[C@H](/C(C)=C/[C@@H]3CC[C@@H](O)[C@H](OC)C3)[C@H](C)C(N3CCN(C)CC3)CC1=O)[C@H](C)C[C@@H]2OC (stereo partly drawn) [Example 17]
9,119,CC[C@@H]1/C=C(\C)C[C@H](C)C[C@H](OC)[C@H]2O[C@@](O)(C(=O)C(=O)N3CCCC[C@H]3C(=O)O[C@H](/C(C)=C/[C@@H]3CC[C@@H](O)[C@H](OC)C3)[C@H](C)C(N3CCN(c4ccccc4)CC3)CC1=O)[C@H](C)C[C@@H]2OC (stereo partly drawn) [Example 18]
10,9.3,CC[C@@H]1/C=C(\C)C[C@H](C)C[C@H](OC)[C@H]2O[C@@](O)(C(=O)C(=O)N3CCCC[C@H]3C(=O)O[C@H](/C(C)=C/[C@@H]3CC[C@@H](O)[C@H](OC)C3)[C@H](C)[C@@H](OC(=O)CI)CC1=O)[C@H](C)C[C@@H]2OC [Example 21]
11,1.4,CC[C@@H]1/C=C(\C)C[C@H](C)C[C@H](OC)[C@H]2O[C@@](O)(C(=O)C(=O)N3CCCC[C@H]3C(=O)O[C@H](/C(C)=C/[C@@H]3CC[C@@H](OC(=O)CI)[C@H](OC)C3)[C@H](C)[C@@H](O)CC1=O)[C@H](C)C[C@@H]2OC [Example 23]
12,203,CC[C@@H]1/C=C(\C)C(O)[C@H](C)C[C@H](OC)[C@H]2O[C@@](O)(C(=O)C(=O)N3CCCC[C@H]3C(=O)O[C@H](/C(C)=C/[C@@H]3CC[C@@H](O)[C@H](OC)C3)[C@H](C)[C@@H](OC(=O)CI)CC1=O)[C@H](C)C[C@@H]2OC (stereo partly drawn) [Example 25]
13,125,CC[C@@H]1/C=C(\C)C(O)[C@H](C)C[C@H](OC)[C@H]2O[C@@](O)(C(=O)C(=O)N3CCCC[C@H]3C(=O)O[C@H](/C(C)=C/[C@@H]3CC[C@@H](OC(=O)CI)[C@H](OC)C3)[C@H](C)[C@@H](O)CC1=O)[C@H](C)C[C@@H]2OC (stereo partly drawn) [Example 26]
14,521,CC[C@@H]1/C=C(\C)C[C@H](C)C[C@H](OC)[C@H]2O[C@@](O)(C(=O)C(=O)N3CCCC[C@H]3C(=O)O[C@H](/C(C)=C/[C@@H]3CC[C@@H](O)[C@H](OC)C3)[C@H](C)C(N3CCNCC3)CC1=O)[C@H](C)C[C@@H]2OC (stereo partly drawn) [Example 27]

# Same assay, conditions: Table 1
row,SMILES,IC50 [nM]
1,CC[C@@H]1/C=C(\C)C[C@H](C)C[C@H](OC)[C@H]2O[C@@](O)(C(=O)C(=O)N3CCCC[C@H]3C(=O)O[C@H](/C(C)=C/[C@@H]3CC[C@@H](OP(=O)(Oc4ccccc4)Oc4ccccc4)[C@H](OC)C3)[C@H](C)[C@@H](OP(=O)(Oc3ccccc3)Oc3ccccc3)CC1=O)[C@H](C)C[C@@H]2OC [Example 10],11.1
